According to patent US4303655A, “3,7-Disubstituted-3-cephem-4-carboxylic acid compounds” (Fujisawa Pharmaceutical Co., Ltd., priority 1976, dated 1981):
Values after ≈ are worked out from the molar mass of the structure shown.

Test system: E. Coli 324
Assay: In vitro antibacterial activity by the two-fold agar-plate dilution method
Type: cell-based
Conditions: Escherichia coli, HI-agar, overnight culture 10^8 viable cells per ml., 37° C. for 20 hours, read-out: MIC (minimal inhibitory concentration)
Procedure: In vitro antibacterial activity was determined by the two-fold agar-plate dilution method as described below. One loopful of an overnight culture of each test strain in Trypticase-soy broth (10^8 viable cells per ml.) was streaked on heart infusion agar (HI-agar) containing graded concentrations of antibiotics, and the minimal inhibitory concentration (MIC) was expressed in terms of μg/ml. after incubation at 37° C. for 20 hours.

SMILES	MIC
Cc1nnc(SCC2=C(C(=O)O)N3C(=O)C(NC(=O)C(=O)c4csc(N)n4)C3SC2)o1 (centres unmarked) [(4)]	0.05 µg/mL (≈ 0.104 µM)
Cn1nnnc1SCC1=C(C(=O)O)N2C(=O)C(NC(=O)C(=O)c3csc(N)n3)C2SC1 (centres unmarked) [(1)]	0.05 µg/mL (≈ 0.104 µM)
Cn1cnnc1SCC1=C(C(=O)O)N2C(=O)C(NC(=O)C(=O)c3csc(N)n3)C2SC1 (centres unmarked) [(5)]	0.05 µg/mL (≈ 0.104 µM)
Cc1nnc(SCC2=C(C(=O)O)N3C(=O)C(NC(=O)C(=O)c4csc(N)n4)C3SC2)s1 (centres unmarked) [(3)]	0.05 µg/mL (≈ 0.1 µM)
Nc1nc(C(=O)C(=O)NC2C(=O)N3C(C(=O)O)=C(CSc4nncs4)CSC23)cs1 (centres unmarked) [(2)]	0.05 µg/mL (≈ 0.103 µM)
